{"source": "ChEMBL document CHEMBL5465560", "about": "“Selectivity Literature for EUbOPEN Chemogenomic Library” (2024)", "key": {"[1]": {"target": "Serine/threonine-protein kinase Nek4 (Homo sapiens) (UniProt P51957)", "sequence (P51957 whole entry, looked up)": "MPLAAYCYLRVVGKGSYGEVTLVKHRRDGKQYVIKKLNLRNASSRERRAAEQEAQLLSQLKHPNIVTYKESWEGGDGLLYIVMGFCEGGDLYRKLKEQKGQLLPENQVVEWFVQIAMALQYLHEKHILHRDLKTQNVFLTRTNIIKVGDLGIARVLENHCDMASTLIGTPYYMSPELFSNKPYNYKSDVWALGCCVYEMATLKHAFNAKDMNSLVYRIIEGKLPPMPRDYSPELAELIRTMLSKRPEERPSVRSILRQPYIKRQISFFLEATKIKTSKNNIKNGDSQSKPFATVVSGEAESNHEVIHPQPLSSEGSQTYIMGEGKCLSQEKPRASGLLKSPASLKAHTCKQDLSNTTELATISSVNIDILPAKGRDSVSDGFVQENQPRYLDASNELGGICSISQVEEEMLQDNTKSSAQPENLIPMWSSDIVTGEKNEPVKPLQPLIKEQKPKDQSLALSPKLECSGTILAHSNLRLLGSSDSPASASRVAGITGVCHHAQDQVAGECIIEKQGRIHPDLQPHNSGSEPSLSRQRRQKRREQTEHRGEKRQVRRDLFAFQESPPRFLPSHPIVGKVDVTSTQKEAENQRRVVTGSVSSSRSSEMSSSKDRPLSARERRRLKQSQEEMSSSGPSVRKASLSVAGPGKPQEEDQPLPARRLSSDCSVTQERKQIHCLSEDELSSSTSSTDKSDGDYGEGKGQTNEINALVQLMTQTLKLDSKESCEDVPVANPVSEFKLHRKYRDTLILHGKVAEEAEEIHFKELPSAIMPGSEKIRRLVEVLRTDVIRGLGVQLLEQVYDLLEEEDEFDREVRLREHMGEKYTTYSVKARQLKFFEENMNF", "test": "Selectivity interaction (KinomeScan (DiscoverX)) EUB0001049a NEK4", "settings": "at 1 µM"}, "[2]": {"target": "T1, Mitogen-activated protein kinase kinase kinase kinase 3 (Homo sapiens) (UniProt Q8IVH8)", "T1 sequence (whole entry)": "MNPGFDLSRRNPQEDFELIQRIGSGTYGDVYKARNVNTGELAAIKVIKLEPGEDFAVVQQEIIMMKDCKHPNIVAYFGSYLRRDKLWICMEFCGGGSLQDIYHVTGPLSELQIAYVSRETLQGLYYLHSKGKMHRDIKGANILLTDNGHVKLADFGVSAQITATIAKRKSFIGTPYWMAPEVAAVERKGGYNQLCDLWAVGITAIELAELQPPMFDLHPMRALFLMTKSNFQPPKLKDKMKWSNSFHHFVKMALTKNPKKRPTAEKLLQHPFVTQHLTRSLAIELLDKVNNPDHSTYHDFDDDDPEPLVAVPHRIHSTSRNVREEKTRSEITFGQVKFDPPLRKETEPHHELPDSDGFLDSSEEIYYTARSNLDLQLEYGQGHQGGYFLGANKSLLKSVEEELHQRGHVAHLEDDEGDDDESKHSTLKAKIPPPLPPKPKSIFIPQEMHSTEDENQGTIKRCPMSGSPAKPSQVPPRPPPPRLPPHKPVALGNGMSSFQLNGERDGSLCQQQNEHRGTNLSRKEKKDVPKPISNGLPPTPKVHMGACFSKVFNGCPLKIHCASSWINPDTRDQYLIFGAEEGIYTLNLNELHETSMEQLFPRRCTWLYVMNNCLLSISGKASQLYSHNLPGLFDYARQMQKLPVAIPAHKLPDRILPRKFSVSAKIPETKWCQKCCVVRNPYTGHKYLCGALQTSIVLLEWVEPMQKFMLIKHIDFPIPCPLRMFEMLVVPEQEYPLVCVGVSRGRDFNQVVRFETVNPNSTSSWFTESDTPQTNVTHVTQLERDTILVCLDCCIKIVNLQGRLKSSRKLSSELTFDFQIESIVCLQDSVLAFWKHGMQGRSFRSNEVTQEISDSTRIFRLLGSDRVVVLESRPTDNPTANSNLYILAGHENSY", "settings": "at 10 µM"}, "[3]": {"target": "T2, Mitogen-activated protein kinase kinase kinase 13 (Homo sapiens) (UniProt O43283)", "T2 sequence (whole entry)": "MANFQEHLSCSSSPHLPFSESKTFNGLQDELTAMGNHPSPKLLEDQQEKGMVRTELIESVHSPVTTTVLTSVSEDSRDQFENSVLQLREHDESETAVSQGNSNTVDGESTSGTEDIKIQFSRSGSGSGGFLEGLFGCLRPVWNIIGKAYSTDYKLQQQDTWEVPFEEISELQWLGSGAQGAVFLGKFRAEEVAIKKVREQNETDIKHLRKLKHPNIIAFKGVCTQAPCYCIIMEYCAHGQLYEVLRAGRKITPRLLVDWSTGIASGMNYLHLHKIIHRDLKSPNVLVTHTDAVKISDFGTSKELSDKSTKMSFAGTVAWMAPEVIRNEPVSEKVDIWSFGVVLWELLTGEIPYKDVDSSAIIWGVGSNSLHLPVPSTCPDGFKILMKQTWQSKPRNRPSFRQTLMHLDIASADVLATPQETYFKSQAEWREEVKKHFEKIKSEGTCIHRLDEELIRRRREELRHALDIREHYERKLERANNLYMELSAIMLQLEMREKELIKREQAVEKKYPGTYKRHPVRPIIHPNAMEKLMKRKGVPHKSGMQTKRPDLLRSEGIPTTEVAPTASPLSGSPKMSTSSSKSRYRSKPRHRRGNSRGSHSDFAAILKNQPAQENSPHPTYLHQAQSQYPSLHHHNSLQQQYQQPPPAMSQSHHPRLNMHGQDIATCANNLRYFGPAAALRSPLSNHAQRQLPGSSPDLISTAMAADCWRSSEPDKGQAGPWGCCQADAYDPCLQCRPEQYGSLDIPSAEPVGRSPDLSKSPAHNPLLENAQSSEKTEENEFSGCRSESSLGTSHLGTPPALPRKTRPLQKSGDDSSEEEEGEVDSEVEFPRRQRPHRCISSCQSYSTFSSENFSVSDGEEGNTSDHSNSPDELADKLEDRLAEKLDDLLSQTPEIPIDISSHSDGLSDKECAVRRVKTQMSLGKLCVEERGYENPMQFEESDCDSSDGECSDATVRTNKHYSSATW", "test": "Selectivity interaction (KinomeScan (DiscoverX)) EUB0000595a MAP3K13", "settings": "at 10 µM"}, "[4]": {"target": "T3, Ankyrin repeat and protein kinase domain-containing protein 1 (Homo sapiens) (UniProt Q8NFD2)", "T3 sequence (whole entry)": "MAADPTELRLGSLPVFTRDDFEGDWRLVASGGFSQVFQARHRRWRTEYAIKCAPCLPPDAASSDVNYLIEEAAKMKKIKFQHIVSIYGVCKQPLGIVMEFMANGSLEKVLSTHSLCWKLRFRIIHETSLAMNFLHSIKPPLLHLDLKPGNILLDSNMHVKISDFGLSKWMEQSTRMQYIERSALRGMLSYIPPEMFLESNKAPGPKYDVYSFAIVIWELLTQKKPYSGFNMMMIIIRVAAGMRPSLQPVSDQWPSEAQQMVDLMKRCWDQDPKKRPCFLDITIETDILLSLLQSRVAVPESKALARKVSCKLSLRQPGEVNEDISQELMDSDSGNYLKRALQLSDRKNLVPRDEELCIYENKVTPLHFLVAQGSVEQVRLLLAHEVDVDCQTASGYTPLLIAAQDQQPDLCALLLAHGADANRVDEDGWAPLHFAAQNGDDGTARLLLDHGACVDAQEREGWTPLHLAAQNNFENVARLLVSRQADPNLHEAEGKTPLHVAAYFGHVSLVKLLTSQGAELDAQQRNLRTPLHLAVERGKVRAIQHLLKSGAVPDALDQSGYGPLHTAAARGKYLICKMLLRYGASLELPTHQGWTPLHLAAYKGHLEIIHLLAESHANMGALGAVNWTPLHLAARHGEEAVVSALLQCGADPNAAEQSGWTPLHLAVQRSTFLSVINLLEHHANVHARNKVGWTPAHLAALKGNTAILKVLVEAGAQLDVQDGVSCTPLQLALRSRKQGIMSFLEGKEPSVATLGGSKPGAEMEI", "test": "Selectivity interaction (KinomeScan (DiscoverX)) EUB0000092b ANKK1", "settings": "at 10 µM"}, "[5]": {"target": "Serine/threonine-protein kinase PAK 2 (Homo sapiens) (UniProt Q13177)", "sequence (Q13177 whole entry)": "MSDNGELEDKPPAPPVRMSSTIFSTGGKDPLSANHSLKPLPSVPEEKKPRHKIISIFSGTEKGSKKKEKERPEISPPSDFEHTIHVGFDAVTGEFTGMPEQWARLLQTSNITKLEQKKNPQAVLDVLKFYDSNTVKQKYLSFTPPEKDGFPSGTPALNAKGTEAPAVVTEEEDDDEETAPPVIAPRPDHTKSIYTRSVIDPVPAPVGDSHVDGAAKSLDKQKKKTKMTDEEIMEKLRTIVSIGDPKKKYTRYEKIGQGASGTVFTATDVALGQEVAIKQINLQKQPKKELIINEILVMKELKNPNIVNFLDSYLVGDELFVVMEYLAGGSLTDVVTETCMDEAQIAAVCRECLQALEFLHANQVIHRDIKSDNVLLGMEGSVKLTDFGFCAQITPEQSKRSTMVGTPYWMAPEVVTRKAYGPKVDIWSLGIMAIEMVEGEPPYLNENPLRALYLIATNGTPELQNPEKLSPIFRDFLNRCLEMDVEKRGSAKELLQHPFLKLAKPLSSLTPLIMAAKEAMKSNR", "settings": "at 10 µM"}, "[6]": {"target": "Casein kinase I isoform alpha (Homo sapiens, UniProt P48729)", "sequence (P48729 2-337 limits assumed)": "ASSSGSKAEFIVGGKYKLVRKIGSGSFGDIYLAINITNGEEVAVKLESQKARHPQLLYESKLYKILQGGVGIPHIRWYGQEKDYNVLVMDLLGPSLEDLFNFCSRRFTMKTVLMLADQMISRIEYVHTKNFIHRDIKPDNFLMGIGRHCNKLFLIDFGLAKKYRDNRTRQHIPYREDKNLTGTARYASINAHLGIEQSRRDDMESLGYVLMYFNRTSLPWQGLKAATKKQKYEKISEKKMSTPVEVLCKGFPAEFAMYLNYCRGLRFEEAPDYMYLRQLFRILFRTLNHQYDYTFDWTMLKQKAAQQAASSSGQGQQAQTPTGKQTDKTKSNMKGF", "test": "Selectivity interaction (ActivX KiNativ screen (ex vivo kinase selectivity in human PBMCs)) EUB0001619a CSNK1A1", "type": "cell-based", "settings": "PBMC, at 1 µM"}, "[7]": {"target": "Protein arginine N-methyltransferase 3 (Homo sapiens, UniProt O60678)", "sequence (O60678 2-531 limits assumed)": "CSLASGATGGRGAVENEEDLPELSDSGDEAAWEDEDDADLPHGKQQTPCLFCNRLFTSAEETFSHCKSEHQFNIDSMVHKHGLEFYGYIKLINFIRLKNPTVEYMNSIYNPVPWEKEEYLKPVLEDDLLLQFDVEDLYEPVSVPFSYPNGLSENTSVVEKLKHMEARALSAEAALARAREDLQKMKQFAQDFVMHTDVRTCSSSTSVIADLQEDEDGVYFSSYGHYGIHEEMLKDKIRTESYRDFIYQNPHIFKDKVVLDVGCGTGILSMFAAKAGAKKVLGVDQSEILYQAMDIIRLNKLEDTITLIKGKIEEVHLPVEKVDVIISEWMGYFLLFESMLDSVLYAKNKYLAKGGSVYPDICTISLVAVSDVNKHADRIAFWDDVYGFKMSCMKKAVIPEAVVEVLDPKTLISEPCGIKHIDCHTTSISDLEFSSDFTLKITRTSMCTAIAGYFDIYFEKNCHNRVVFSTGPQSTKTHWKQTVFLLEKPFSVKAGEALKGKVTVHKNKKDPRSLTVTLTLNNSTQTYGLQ", "test": "Selectivity interaction (Methyltransferase screen (radiometric assays, panel of 8 PRMTs, 21 protein lysine methyltransferases, 3 DNA methyltransferases, and one RNA methyltransferase)) EUB0000272b PRMT3"}}}
{"molecule": "COc1cc(Nc2nc(C)cc(-c3cnn4nc(OC)ccc34)n2)cc(C(F)(F)F)c1", "values": [{"measurement": "% of control", "setting": "[1]", "value": 90, "unit": "%"}]}
{"molecule": "CCN(CC)CCCCNc1ncc2cc(-c3cc(OC)cc(OC)c3)c(NC(=O)NC(C)(C)C)nc2n1", "values": [{"measurement": "% of control", "setting": "[2]", "value": 100, "unit": "%"}]}
{"molecule": "COCC(=O)NC/C=C/c1ccc2ncnc(Nc3ccc(Oc4ccc(C)nc4)c(C)c3)c2c1", "note": "[CP-724714]", "values": [{"measurement": "% of control", "setting": "[3]", "value": 80, "unit": "%"}]}
{"molecule": "CCC(=O)N1CCN(c2ccc(-n3c(=O)ccc4cnc5ccc(-c6cnc7ccccc7c6)cc5c43)cc2C(F)(F)F)CC1", "values": [{"measurement": "% of control", "setting": "[4]", "value": 93, "unit": "%"}]}
{"molecule": "Cc1cc([C@@H](C)Nc2ccccc2C(=O)O)c2nc(N3CCOCC3)cc(=O)n2c1", "note": "[AZD-6482]", "values": [{"measurement": "% of control", "setting": "[5]", "value": 100, "unit": "%"}]}
{"molecule": "N#Cc1cccc(-c2c[nH]c3ncnc(N4CCOCC4)c23)c1", "values": [{"measurement": "% of inhibition", "setting": "[6]", "value": -7, "unit": "%"}]}
{"molecule": "Cc1cc(C)cc([C@H]2c3cc(C)ccc3NC(=O)CN2C(=O)c2ccc(Br)s2)c1", "values": [{"measurement": "% of activity", "setting": "[7]; at 1 µM", "value": 102, "unit": "%"}, {"measurement": "% of activity", "setting": "[7]; at 10 µM", "value": 102, "unit": "%"}]}
